This note sets out measurements from patent publication US11084976B2, “Method and process of use of binary compositions for acidizing subterranean formations” (Halliburton Energy Services, Inc., priority 2018, dated 2021).

Data set [1] can be described thus: Solubility of PMIDA in water and HCl (saturation concentrations). Type of data set: physicochemical. As to conditions: for solubility thermodynamic: water, thermodynamic from solid, H2O. From the text:
In certain embodiments, the organic compound comprising a phosphonoalkyl moiety is at least partially solubilized in the organic or mineral acid. As used herein, the term “at least partially solubilized,” and grammatical variants thereof, with reference to the organic compound comprising a phosphonoalkyl moiety in the organic or mineral acid refers to dissolution of at least about 2% weight per volume (w/v) of the organic compound comprising a phosphonoalkyl moiety in the organic or mineral acid at room temperature. As used herein, the term “room temperature” refers to about 15° C. to about 25° C. The remaining excess organic compound comprising a phosphonoalkyl moiety may be suspended in the organic or mineral acid while it is undergoing dynamic fluid flow at room temperature. As temperatures increase (e.g., as the treatment fluid is introduced into a subterranean formation and encounters downhole temperatures), the solubility of the organic compound comprising a phosphonoalkyl moiety in the organic or mineral acid may increase. Indeed, the solubility of the organic compound comprising a phosphonoalkyl moiety increases as a function of acid concentration, and temperature.

Data set [2] can be described thus: PMIDA added to base solubility test. It counts as physicochemical. As to conditions: base added to PMIDA in solid form or high concentrated slurry. The method, then:
During the testing, however, it was observed that adding the base to the PMIDA in its solid form, or in a high concentrated slurry, was unsuccessful.
The following procedure was followed to generate several samples. First, a quantity of a known base in water was prepared. Next, PMIDA was added to the solution at a rate slow enough to ensure that no boiling of the fluid occurred. As discussed above, it is believed that the addition of the PMIDA to the base may result in an exothermic reaction that may aid in additional solubilizing of PMIDA due to the increase in the fluid temperature. After complete addition and thorough mixing, the fluid was cooled, and the volume, weight, and pH were measured. Finally, the concentration and density of the samples were determined.

Molecules are shown by their SMILES. In brackets after ≈: the same amount, converted by molar mass.

Regarding `O=C(O)CN(CC(=O)O)CP(=O)(O)O` [PMIDA, N-(phosphonomethyl)iminodiacetic acid], the “Solubility Average” value in data set [1] (Atm., 7.5% HCl, 200° F.) amounted to 10.00 w/v %. Further, the thermodynamic solubility stood at 18.3 mg/mL (≈ 80.6 mM) in data set [1] (37.8 °C, 200 psi, 100° F.); 22.6 mg/mL (≈ 99.5 mM) in data set [1] (37.8 °C, Atm., 100° F.); 28.7 mg/mL (≈ 126 mM) in data set [1] (65.6 °C, 200 psi, 150° F.); 31.9 mg/mL (≈ 140 mM) in data set [1] (65.6 °C, Atm., 150° F.); 51.1 mg/mL (≈ 225 mM) in data set [1] (93.3 °C, 200 psi, 200° F.); 47.9 mg/mL (≈ 211 mM) in data set [1] (93.3 °C, Atm., 200° F.). Moreover, the “Solubility in the base mixture” value in data set [2] was “substantially insoluble”.

By solubility (thermodynamic) is commonly meant solubility found after equilibrating the solid with the medium.
